The target in the series is ATP-dependent translocase ABCB1 (Homo sapiens, UniProt P08183). The experiment in a line: TP_TRANSPORTER: transepithelial transport (basal to apical) in MDR1-expressing LLC-PK1 cells. It is filed as functional, cell-based. To be noted: pig.
Chain of ATP-dependent translocase ABCB1 (P08183 whole entry): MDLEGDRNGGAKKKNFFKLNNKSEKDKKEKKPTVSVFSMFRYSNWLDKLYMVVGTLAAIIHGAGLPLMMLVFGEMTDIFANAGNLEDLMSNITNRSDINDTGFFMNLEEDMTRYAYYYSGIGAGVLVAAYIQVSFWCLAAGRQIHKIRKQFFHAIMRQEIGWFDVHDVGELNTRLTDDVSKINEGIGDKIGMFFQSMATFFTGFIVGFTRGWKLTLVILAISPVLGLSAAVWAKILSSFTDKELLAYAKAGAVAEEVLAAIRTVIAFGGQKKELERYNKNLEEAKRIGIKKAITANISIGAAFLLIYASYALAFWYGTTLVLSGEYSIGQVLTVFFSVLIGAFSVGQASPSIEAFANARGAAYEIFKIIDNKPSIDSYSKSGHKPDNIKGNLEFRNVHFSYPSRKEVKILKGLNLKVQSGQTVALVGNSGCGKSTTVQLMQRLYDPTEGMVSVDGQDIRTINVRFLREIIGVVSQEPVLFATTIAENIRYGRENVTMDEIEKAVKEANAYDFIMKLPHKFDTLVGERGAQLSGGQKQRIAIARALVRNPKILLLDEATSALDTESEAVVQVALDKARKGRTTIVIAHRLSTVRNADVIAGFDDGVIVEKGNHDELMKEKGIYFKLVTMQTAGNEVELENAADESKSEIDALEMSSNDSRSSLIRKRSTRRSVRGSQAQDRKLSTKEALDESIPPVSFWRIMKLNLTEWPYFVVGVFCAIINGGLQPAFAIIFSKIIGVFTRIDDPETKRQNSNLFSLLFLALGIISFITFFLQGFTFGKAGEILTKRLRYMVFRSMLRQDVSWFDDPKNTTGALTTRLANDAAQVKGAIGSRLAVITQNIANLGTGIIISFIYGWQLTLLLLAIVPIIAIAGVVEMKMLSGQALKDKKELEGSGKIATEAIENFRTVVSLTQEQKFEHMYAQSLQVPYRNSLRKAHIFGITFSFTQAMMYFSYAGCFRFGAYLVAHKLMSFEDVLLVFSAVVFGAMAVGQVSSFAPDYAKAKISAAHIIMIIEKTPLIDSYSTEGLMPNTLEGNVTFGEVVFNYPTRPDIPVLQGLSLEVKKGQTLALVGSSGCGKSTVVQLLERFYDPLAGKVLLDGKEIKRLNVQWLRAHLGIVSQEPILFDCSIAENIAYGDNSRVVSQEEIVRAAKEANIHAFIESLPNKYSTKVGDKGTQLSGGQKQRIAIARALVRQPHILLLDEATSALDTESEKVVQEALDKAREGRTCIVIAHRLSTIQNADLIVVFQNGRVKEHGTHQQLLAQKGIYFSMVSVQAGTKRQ

For `CC(=O)O[C@H]1C[C@H](O[C@H]2[C@@H](O)C[C@H](O[C@H]3[C@@H](O)C[C@H](O[C@H]4CC[C@@]5(C)[C@H](CC[C@@H]6[C@@H]5C[C@@H](O)[C@]5(C)[C@@H](C7=CC(=O)OC7)CC[C@]65O)C4)O[C@@H]3C)O[C@@H]2C)O[C@H](C)[C@H]1O` [ACETYLDIGOXIN], the Activity result is “substrate [+]”.

`O=C(O)CCC(=O)C(=O)O` [ALPHA-KETOGLUTARIC ACID]: the Activity result was “substrate [+]”.

On to `C[C@H]1O[C@@H](O[C@H]2[C@@H](O)C[C@H](O[C@H]3[C@@H](O)C[C@H](O[C@H]4CC[C@@]5(C)[C@H](CC[C@@H]6[C@@H]5CC[C@]5(C)[C@@H](C7=CC(=O)OC7)CC[C@]65O)C4)O[C@@H]3C)O[C@@H]2C)C[C@H](O)[C@@H]1O` [DIGITOXIN], for which the Activity entry was “substrate [+]”.

Values taken from ChEMBL document CHEMBL2074460, “P-glycoprotein-mediated transport of digitoxin, alpha-methyldigoxin and beta-acetyldigoxin” (Naunyn Schmiedebergs Arch Pharmacol, 2001).
